Among the test systems are K-562 leukemia; HOP-92 NSCLC; COLO 205 colon; ACHN renal; CAKI-1 renal; KM12 colon; UACC-257 melanoma; NCI-H460 lung; SNB-75 CNS; NCI-H522 lung.
What all share (experiment): inhibition of tumour cell growth, NCI panel, 48 h

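These data come from cells grown in 96-well plates and exposed to compound for 48 hours at five concentrations. At the GI50, growth is halved. At the TGI there is no net growth.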 Where only a bound is given, the exact number is not on record here.

Regarding `C/C(=N\NS(=O)(=O)c1ccccc1)c1ccc(Cl)c(Cl)c1`, the TGI in the experiment with K-562 leukemia is more than 100 µM; in the experiment on HOP-92 NSCLC, more than 100 µM; with COLO 205 colon, 85.3 µM; in the experiment with ACHN renal it was more than 100 µM; with CAKI-1 renal, more than 100 µM; in the experiment on KM12 colon it was more than 100 µM. Besides, the TGI in the experiment with UACC-257 melanoma, in the experiment on NCI-H460 lung and with SNB-75 CNS was more than 100 µM in each case.
Take `CCCNC1=C(C(=O)OCC)C(=O)CO1`: the TGI in the experiment on K-562 leukemia, with HOP-92 NSCLC, with ACHN renal, in the experiment with CAKI-1 renal, in the experiment with UACC-257 melanoma and in the experiment on NCI-H460 lung was more than 100 µM throughout. In the experiment with SNB-75 CNS, this molecule registered a TGI of more than 100 µM.
`COC(=O)C(=O)C1(CCC(C)=O)c2ccccc2-c2c(C)ccc(C)c21` (configuration not stated): the TGI in the experiment with K-562 leukemia was more than 100 µM; with COLO 205 colon it was more than 100 µM; with ACHN renal, more than 100 µM; in the experiment on CAKI-1 renal, more than 100 µM; with NCI-H522 lung, 94.1 µM; with KM12 colon, more than 100 µM. For the same molecule, the TGI with UACC-257 melanoma is 91.8 µM; in the experiment with NCI-H460 lung it was more than 100 µM; in the experiment on SNB-75 CNS, more than 100 µM.
As for `O=C(CN1CCOCC1)Nc1nc(-c2ccc(Cl)cc2)cs1`, the TGI in the experiment with K-562 leukemia is 94.5 µM; in the experiment with HOP-92 NSCLC, more than 100 µM; with COLO 205 colon, 93 µM; with ACHN renal, 79.6 µM; with CAKI-1 renal, more than 100 µM; in the experiment on KM12 colon, 48.1 µM. The TGI was more than 100 µM in the experiment with NCI-H460 lung and 62.6 µM with SNB-75 CNS.
`CC1=C(Oc2ccccc2)C(CCC(=O)O)c2c(O)cc(Cl)c(O)c21` (configuration not stated): the TGI in the experiment on K-562 leukemia, in the experiment on HOP-92 NSCLC, in the experiment on COLO 205 colon, with CAKI-1 renal, with NCI-H522 lung and in the experiment with KM12 colon was more than 100 µM in each case. Further, the TGI in the experiment with UACC-257 melanoma and in the experiment with NCI-H460 lung was more than 100 µM throughout.
As to `Cc1[nH]ccc2c1[nH]c1cc(=O)ccc12`, the TGI with K-562 leukemia, in the experiment with HOP-92 NSCLC, with COLO 205 colon, in the experiment on ACHN renal, in the experiment with CAKI-1 renal and in the experiment with KM12 colon was more than 100 µM each time. The TGI in the experiment with UACC-257 melanoma, in the experiment with NCI-H460 lung and in the experiment with SNB-75 CNS was more than 100 µM throughout.
For the molecule `NCCOCCOCCNc1nc(Cc2ccccc2)nc(NCCCN2CCCC2=O)n1`, the GI50 is more than 100000 nM in the experiment with K-562 leukemia; more than 100000 nM in the experiment on HOP-92 NSCLC; more than 100000 nM in the experiment with COLO 205 colon; more than 100 µM in the experiment with ACHN renal; more than 100 µM in the experiment with CAKI-1 renal; more than 100000 nM in the experiment with KM12 colon. Moreover, the GI50 in the experiment with UACC-257 melanoma, in the experiment on NCI-H460 lung and in the experiment on SNB-75 CNS was more than 100000 nM throughout. In addition, the TGI with K-562 leukemia, in the experiment on HOP-92 NSCLC, in the experiment on COLO 205 colon, in the experiment on ACHN renal, in the experiment on CAKI-1 renal and in the experiment on KM12 colon was more than 100 µM throughout. Besides, the TGI in the experiment on UACC-257 melanoma, with NCI-H460 lung and with SNB-75 CNS was more than 100 µM each time.
As for `NC1C[C@H](n2cc(/C=C/Br)c(=O)[nH]c2=O)C[C@@H]1CO` (some centres not stated), the TGI in the experiment with K-562 leukemia, in the experiment with COLO 205 colon, in the experiment on ACHN renal, in the experiment on NCI-H522 lung, in the experiment with UACC-257 melanoma and in the experiment on NCI-H460 lung was more than 100 µM throughout. For the same molecule, the TGI in the experiment with SNB-75 CNS is more than 100 µM.
In the case of `Oc1cccc2ccc(N/N=C/c3cc(CN4CCCCC4)c(O)c4ncccc34)nc12`, the GI50 was 38.3 nM in the experiment with K-562 leukemia; 16.5 nM with HOP-92 NSCLC; 65.1 nM in the experiment on COLO 205 colon; 0.0344 µM in the experiment on ACHN renal; 0.309 µM in the experiment with CAKI-1 renal; 31.4 nM in the experiment on NCI-H522 lung. For the same molecule, the GI50 is 44.9 nM in the experiment with KM12 colon, 256 nM in the experiment with UACC-257 melanoma and 38.6 nM with NCI-H460 lung. Also, the TGI was 11.1 µM with K-562 leukemia; 0.0857 µM in the experiment on HOP-92 NSCLC; 1.36 µM in the experiment on COLO 205 colon; 1.19 µM with ACHN renal; 2.14 µM in the experiment with CAKI-1 renal; 1.21 µM in the experiment with NCI-H522 lung. Moreover, the figures for the TGI with KM12 colon, with UACC-257 melanoma and in the experiment with NCI-H460 lung were 1.85 µM, 1.04 µM and 1.67 µM, respectively.
Take `O=c1/c(=C/c2ccccc2F)sc2nc3ccccc3n12`: the TGI in the experiment on K-562 leukemia, in the experiment with HOP-92 NSCLC, in the experiment with ACHN renal, in the experiment on CAKI-1 renal, in the experiment on NCI-H522 lung and with UACC-257 melanoma was more than 100 µM in each case. Further, the TGI in the experiment with NCI-H460 lung and with SNB-75 CNS was more than 100 µM in each case.
As to `O=C1CC(c2ccc(O)cc2)C2(O1)C(=O)OC(C(O)CO)C2O` (configuration not stated), the TGI with K-562 leukemia, in the experiment on COLO 205 colon, with ACHN renal, in the experiment with CAKI-1 renal, in the experiment on KM12 colon and in the experiment on UACC-257 melanoma was more than 100 µM throughout. Besides, the TGI in the experiment with SNB-75 CNS is more than 100 µM.
For the molecule `CC1=C(C)C(=O)c2c(cc3ccccn23)C1=O`, the TGI in the experiment with K-562 leukemia is more than 100 µM; with COLO 205 colon, 34.5 µM; with ACHN renal, more than 100 µM; with KM12 colon it was 31.3 µM; with NCI-H460 lung, 31.5 µM; in the experiment on SNB-75 CNS, 43.1 µM.
As for `Cc1ccccc1[P+](Cc1ccccc1)(c1ccccc1)c1ccccc1`, the GI50 in the experiment on K-562 leukemia was 1080 nM; in the experiment on COLO 205 colon, 1510 nM; in the experiment on ACHN renal, 8.3 µM; with CAKI-1 renal, 12.1 µM; in the experiment with NCI-H522 lung, 2090 nM; with KM12 colon, 1120 nM. The GI50 in the experiment on UACC-257 melanoma is 623 nM; with NCI-H460 lung it was 2230 nM; in the experiment with SNB-75 CNS it was 2140 nM. Also, the TGI was more than 100 µM in the experiment with K-562 leukemia; 4 µM in the experiment on COLO 205 colon; more than 100 µM in the experiment with ACHN renal; more than 100 µM in the experiment with CAKI-1 renal; 10.5 µM in the experiment on NCI-H522 lung; 15.1 µM with KM12 colon. Further, the TGI in the experiment with UACC-257 melanoma was found to be 4.23 µM; in the experiment on NCI-H460 lung it was 10.7 µM; in the experiment on SNB-75 CNS, 20.2 µM.
